# From ChEMBL document CHEMBL1201862, “PubChem BioAssay data set” (2004)
# The source made the active and inactive calls.
# Experiments:
# [1] = target: Cytochrome P450 3A4 (Homo sapiens, UniProt P08684);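 also: CYP3A4 tested as one member of a cytochrome P450 panel screen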
# [2] = Luminescence Cell-Based Dose Retest to Confirm Inhibitors of Cancer Stem Cells. [Related pubchem assays (depositor defined):AID2717, AID2721]; format: functional; details: Homo sapiens
# [3] = target: Cytochrome P450 2C9 (Homo sapiens, UniProt P11712)
# Cytochrome P450 2C9, sequence (P11712 whole entry): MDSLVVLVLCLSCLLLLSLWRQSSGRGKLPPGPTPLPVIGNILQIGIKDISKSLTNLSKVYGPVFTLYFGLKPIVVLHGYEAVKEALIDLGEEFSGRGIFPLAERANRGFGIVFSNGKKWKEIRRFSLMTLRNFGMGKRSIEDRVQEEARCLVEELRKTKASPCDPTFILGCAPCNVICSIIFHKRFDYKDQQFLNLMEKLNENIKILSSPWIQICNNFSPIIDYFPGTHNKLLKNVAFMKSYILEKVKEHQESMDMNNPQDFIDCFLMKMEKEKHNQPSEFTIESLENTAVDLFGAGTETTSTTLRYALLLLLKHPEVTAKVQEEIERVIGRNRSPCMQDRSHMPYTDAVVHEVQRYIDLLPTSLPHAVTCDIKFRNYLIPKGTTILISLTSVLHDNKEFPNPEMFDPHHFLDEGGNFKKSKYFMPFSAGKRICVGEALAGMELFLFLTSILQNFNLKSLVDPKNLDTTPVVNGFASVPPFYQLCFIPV
# [4] = target: T1, Replicative DNA helicase DnaB (Mycobacterium tuberculosis, UniProt P9WMR3); experiment: DnaB intein splicing inhibitors, dose response, biochemical, cell-free fluorescence (AID 449749); format: functional
# T1 sequence (P9WMR3 whole entry): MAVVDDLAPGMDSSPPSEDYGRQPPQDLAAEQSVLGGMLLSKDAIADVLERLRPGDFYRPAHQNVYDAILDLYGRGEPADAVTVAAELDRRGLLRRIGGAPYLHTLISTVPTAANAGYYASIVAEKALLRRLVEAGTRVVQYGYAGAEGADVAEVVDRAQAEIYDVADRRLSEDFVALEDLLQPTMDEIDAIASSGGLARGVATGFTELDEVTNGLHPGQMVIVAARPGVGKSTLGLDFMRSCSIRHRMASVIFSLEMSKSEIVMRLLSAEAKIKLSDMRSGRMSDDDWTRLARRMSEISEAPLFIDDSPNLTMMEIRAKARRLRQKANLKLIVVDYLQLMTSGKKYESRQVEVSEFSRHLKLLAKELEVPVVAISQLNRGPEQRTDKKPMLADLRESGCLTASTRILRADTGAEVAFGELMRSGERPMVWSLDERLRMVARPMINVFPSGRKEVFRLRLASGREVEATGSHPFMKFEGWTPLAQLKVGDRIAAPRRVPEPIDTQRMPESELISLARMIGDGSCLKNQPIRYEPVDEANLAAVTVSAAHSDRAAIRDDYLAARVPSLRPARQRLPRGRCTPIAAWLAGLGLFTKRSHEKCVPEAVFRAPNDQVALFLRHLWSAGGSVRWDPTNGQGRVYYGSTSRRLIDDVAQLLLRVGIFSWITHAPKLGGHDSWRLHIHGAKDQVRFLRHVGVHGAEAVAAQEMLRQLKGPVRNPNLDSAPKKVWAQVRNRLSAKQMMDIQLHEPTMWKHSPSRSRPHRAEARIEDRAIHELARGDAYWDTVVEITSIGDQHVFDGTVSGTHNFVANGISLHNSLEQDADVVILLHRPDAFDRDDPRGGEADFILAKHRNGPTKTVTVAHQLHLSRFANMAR
# [5] = target: T2, Protein RecA (Mycobacterium tuberculosis, UniProt P9WHJ3); experiment: Fluorescence Cell-Free Homogeneous Dose Retest to Identify Inhibitors of RecA-Intein Splicing Activity. [Related pubchem assays (depositor defined):AID2097, AID2223, AID489010, AID492950]; format: functional
# T2 sequence (P9WHJ3 whole entry): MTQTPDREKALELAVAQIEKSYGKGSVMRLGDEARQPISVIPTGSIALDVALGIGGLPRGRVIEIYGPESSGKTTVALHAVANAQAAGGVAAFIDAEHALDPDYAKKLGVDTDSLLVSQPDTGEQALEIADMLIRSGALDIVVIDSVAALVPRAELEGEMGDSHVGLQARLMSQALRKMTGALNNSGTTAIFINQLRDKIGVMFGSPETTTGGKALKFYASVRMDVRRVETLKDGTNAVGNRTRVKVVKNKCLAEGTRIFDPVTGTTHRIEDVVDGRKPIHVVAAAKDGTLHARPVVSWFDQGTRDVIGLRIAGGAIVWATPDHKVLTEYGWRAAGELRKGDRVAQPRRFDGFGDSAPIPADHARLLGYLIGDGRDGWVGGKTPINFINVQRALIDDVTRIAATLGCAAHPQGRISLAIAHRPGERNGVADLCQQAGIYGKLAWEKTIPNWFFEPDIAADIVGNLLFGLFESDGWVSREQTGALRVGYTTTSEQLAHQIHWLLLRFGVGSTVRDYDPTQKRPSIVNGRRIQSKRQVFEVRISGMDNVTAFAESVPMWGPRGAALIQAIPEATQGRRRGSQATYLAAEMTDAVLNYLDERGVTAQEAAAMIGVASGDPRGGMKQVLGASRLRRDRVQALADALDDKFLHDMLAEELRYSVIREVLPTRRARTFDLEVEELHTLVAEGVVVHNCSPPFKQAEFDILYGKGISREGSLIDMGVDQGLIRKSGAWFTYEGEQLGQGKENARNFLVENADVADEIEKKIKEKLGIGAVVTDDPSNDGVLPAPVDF
# [6] = target: T3, Coagulation factor XII (Homo sapiens, UniProt P00748); format: functional;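 also: activated factor XIIa alpha cleaving a fluorogenic AMC peptide substrate; inhibitor potency from loss of enzyme activity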
# T3 sequence (P00748 whole entry): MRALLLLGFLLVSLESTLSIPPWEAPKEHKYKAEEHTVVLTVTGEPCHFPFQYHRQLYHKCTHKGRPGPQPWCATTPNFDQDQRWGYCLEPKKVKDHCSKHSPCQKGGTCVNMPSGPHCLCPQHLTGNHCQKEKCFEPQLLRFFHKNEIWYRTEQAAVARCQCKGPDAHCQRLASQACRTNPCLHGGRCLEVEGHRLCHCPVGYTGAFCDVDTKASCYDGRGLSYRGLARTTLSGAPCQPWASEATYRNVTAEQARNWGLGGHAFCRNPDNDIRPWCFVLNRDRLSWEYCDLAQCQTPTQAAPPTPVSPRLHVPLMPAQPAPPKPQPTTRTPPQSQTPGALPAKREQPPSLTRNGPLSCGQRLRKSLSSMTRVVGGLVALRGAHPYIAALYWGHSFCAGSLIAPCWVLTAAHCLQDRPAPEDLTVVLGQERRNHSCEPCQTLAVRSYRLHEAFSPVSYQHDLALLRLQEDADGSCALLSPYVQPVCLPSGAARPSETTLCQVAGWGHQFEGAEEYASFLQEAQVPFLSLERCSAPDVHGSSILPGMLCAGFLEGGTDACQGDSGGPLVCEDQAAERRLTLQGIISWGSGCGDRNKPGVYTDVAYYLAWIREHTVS
# [7] = decrease of insulin promoter-GFP reporter – imaging, high-content screening, mouse beta cells (AID 1628); format: functional; details: MIN6
# [8] = test system: INS1; experiment: INS-1E survival protection against cytokine death – cell-based, luminescence, retest, dose response (AID 449756); format: functional; details: Rattus norvegicus;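 also: cell death triggered by IL-1 beta plus TNF-alpha plus IFN-gamma mixture; protective hits raise ATP signal compared with cytokine alone wells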
# [9] = MIN6 cell viability loss – mouse insulinoma, cytotoxicity control, dose response (AID 2122); format: functional;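 also: confirmatory high-throughput counterscreen run to flag cytotoxic compounds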
# [10] = test system: Vero; experiment: viability of Vero cells under compound – cytotoxicity control for flavivirus capping enzyme inhibitors (AID 588742); format: functional; details: Chlorocebus sabaeus
# [11] = target: Genome polyprotein (dengue virus type 2, UniProt P29990); experiment: flavivirus cap methylation enzyme inhibition – biochemical, confirmation dose response, primary screen (AID 588689); format: functional
# Genome polyprotein, sequence (P29990 2492-3391 limits assumed): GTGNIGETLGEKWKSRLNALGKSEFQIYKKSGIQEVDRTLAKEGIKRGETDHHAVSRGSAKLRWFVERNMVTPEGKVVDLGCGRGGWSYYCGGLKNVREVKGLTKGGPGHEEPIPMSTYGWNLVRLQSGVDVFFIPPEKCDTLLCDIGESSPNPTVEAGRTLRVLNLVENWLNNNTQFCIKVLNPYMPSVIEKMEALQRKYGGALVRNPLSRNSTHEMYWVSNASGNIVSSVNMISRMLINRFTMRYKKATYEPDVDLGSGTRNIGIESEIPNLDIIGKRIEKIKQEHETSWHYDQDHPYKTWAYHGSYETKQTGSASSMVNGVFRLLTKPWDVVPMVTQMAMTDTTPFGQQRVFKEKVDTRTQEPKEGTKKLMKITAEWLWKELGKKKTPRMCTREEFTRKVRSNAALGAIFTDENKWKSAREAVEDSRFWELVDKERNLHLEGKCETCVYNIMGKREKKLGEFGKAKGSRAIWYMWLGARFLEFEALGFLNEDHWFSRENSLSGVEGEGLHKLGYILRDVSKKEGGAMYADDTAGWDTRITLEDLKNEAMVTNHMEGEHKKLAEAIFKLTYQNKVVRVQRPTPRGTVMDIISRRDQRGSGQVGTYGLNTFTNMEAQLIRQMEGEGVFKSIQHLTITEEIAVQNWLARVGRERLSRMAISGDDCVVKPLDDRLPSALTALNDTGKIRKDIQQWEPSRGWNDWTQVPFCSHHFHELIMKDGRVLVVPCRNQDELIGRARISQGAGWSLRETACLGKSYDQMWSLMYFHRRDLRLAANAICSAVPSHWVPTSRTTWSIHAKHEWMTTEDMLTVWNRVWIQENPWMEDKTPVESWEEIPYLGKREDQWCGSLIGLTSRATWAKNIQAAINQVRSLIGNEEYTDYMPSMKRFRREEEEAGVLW
# [12] = target: T4, Polyadenylate-binding protein 1 (Homo sapiens, UniProt P11940); experiment: MLLE domain peptide-binding blockers, IC50 – biochemical, fluorescence polarization, FITC-PAM2 peptide, dose response (AID 602259); format: functional; details: read-out: IC50_Mean
# T4 sequence (P11940 whole entry, the tested form may be a part): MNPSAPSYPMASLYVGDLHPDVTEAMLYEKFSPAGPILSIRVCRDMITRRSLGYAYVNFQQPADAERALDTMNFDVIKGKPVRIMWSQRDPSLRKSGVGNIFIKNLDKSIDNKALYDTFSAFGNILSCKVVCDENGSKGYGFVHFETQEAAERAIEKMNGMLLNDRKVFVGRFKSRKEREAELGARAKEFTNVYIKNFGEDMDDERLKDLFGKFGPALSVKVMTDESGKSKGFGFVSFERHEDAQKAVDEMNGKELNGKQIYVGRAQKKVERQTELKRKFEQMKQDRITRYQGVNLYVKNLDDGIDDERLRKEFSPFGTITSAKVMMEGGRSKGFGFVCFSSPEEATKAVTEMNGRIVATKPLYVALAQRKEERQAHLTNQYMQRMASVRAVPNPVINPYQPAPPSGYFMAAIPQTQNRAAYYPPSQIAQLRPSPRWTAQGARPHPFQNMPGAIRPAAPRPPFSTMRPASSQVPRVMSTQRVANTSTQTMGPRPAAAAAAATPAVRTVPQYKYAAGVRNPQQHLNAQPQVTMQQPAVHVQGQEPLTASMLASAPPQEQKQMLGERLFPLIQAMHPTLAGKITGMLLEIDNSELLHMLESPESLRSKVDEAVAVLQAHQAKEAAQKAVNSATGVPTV
# [13] = target: T4, Polyadenylate-binding protein 1; experiment: MLLE binding blockers, Cy5 peptide tracer – biochemical, fluorescence polarization, Cy5-PAM2 peptide, secondary, miRNA deadenylation inhibitor project, dose response (AID 602260); format: functional; details: read-out: IC50_Mean
# [14] = target: Cytochrome P450 2D6 (Homo sapiens, UniProt P10635);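 also: CYP2D6 member of a cytochrome P450 panel assay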
# Cytochrome P450 2D6, sequence (P10635 whole entry): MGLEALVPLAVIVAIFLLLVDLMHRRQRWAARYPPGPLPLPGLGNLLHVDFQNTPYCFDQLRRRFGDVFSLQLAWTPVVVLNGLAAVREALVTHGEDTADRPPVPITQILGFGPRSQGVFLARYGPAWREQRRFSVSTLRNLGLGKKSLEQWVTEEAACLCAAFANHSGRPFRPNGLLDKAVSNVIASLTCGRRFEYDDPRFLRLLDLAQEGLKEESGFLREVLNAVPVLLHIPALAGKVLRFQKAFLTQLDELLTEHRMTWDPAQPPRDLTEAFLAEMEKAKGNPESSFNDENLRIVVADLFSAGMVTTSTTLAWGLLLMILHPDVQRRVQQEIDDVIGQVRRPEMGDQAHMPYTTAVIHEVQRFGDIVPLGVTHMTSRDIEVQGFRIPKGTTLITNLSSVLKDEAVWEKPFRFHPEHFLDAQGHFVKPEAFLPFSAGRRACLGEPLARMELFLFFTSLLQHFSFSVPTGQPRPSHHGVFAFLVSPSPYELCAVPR
# [15] = target: T5, Cytochrome P450 1A2 (Homo sapiens, UniProt P05177);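 also: PubChem cytochrome P450 panel assay, CYP1A2 panel member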
# T5 sequence (P05177 whole entry): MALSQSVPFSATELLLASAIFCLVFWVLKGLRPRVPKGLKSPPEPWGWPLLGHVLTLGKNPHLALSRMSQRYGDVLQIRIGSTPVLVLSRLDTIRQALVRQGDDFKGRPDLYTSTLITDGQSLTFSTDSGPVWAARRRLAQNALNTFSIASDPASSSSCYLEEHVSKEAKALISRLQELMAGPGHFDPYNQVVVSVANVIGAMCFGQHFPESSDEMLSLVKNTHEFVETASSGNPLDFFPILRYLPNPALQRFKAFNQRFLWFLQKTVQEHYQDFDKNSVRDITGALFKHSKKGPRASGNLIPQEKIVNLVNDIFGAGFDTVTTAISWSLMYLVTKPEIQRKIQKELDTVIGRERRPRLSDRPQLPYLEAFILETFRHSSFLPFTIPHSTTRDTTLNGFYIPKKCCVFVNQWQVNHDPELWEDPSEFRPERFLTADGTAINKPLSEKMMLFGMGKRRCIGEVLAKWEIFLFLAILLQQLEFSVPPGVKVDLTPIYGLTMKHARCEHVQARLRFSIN
# [16] = viability of uninfected HEp-2 cells – cell-based, HTS, cytotoxicity control for RSV inhibitor project, dose response (AID 2410); format: functional; details: human respiratory syncytial virus
# [17] = target: T6, Apoptotic protease-activating factor 1 (Homo sapiens, UniProt O14727); format: functional
# T6 sequence (O14727 whole entry): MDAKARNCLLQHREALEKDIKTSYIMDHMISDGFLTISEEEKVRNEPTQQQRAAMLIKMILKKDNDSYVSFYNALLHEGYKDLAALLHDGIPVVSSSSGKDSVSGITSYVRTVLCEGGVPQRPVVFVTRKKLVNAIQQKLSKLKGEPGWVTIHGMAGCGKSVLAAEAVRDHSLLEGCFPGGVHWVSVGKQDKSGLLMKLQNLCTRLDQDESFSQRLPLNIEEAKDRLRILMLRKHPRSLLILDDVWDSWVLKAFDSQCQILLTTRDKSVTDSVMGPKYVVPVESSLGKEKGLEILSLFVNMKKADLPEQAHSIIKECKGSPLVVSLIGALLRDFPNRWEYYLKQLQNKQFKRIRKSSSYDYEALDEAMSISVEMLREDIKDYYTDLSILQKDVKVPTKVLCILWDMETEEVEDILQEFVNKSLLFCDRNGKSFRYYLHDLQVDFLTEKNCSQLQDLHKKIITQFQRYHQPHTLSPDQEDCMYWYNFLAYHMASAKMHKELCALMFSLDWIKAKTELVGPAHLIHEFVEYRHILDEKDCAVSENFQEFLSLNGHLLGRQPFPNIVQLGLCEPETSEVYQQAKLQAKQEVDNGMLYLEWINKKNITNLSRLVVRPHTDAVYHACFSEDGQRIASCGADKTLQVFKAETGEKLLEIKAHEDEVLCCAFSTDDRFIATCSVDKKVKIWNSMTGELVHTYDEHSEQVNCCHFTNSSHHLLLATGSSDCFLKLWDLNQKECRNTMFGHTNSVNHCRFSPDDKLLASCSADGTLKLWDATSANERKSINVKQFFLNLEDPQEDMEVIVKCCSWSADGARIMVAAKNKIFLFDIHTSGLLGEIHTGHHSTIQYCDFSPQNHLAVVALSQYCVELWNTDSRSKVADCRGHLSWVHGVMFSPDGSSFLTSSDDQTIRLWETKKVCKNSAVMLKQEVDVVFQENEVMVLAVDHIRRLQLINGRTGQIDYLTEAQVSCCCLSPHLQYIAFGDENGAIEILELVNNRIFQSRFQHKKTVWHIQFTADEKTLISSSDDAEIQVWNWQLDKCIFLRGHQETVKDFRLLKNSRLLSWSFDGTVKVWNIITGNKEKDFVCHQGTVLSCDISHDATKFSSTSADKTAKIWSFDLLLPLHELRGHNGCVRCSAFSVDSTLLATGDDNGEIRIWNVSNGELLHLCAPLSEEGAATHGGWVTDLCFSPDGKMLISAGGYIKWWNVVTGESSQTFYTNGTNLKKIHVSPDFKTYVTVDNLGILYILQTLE
# [18] = viability loss in THP-1 monocytes – THP-1 cells, cytotoxicity control for Vif-APOBEC3G degradation inhibitor project, dose response (AID 1117359); format: functional; details: THP-1
# Cytochrome P450 3A4, sequence (P08684 whole entry): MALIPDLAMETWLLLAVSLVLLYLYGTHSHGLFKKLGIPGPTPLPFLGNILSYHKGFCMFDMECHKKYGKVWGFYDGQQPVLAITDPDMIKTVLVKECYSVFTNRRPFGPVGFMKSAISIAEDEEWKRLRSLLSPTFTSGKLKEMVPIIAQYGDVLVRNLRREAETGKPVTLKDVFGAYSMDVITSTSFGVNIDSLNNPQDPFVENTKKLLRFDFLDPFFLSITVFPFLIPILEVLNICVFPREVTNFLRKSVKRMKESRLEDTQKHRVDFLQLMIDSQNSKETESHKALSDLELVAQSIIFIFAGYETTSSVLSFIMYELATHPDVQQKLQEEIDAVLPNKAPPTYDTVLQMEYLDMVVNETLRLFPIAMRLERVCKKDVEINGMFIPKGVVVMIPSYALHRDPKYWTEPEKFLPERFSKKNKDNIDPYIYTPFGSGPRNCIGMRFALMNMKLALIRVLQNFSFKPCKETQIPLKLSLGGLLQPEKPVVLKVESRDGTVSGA
compound,measurement,setting,value
CSc1nc2ccccc2cc1/C=C(\C#N)c1cccc(Cl)c1,AC50,[1],inconclusive
same,AC50,[2],1.17 µM (active)
same,AC50,[3],39.8 µM (inconclusive)
O=C(COC(=O)C1CC(=O)N(Cc2ccco2)C1)c1ccc(OC(=O)c2ccco2)cc1 (stereo not given),AC50,[4],> 380 µM (inactive)
same,EC50,[5],18 µM (active)
same,IC50,[6],13.3 µM (active)
COc1cc(CN2CCN(c3cc(C)ccc3C)CC2)ccc1O,IC50,[7],2.74 µM (active)
same,AC50,[8],1.66 µM (active)
same,IC50,[9],1.4 µM (active)
COc1cc(/C=C2\SC(=S)N(NS(=O)(=O)c3ccccc3)C2=O)cc(OC)c1OC,CC50,[10],> 40 µM (active)
same,IC50,[11],65 µM (active)
Cc1sc2nc3ccc(NCc4ccco4)nn3c(=O)c2c1C,CC50,[10],> 40 µM (active)
same,IC50,[11],> 100 µM (active)
same,IC50,[12],> 66 µM (inactive)
same,IC50,[13],> 66 µM (inactive)
O[C@@H](c1ccccc1)C1CCN(CCc2ccccc2)CC1,AC50,[14],25.1 µM (inconclusive)
same,AC50,[15],31.6 µM (inconclusive)
same,AC50,[1],inconclusive
CC(=O)O[C@]1(C(C)=O)CC[C@@H]2[C@@H]3C=C(C)C4=CC(=O)CC[C@@]4(C)[C@H]3CC[C@]21C,AC50,[1],inconclusive
same,AC50,[3],12.6 µM (inconclusive)
CC(=O)c1cccc(S(=O)(=O)N2CCN(c3nc4cc(C)cc(C)c4cc3C#N)CC2)c1,IC50,[7],3.28 µM (active)
same,IC50,[9],5.84 µM (active)
same,CC50,[16],18.4 µM (active)
Cc1ccc(-c2nnc(CSc3nnc(COc4cccc5ccccc45)n3-c3ccccc3)o2)cc1,IC50,[17],6.83 µM (active)
CCN1CCN(CC(=O)N2c3ccccc3CC2C)CC1.O=C(O)C(=O)O (stereo not given),AC50,[14],17.8 µM (inconclusive)
same,AC50,[1],inconclusive
CCOC(=O)N1CCN(C2=C(NS(=O)(=O)c3ccc(Br)cc3)C(=O)c3ccccc3C2=O)CC1,CC50,[10],> 40 µM (active)
COc1cc2c(cc1OC)C(=O)C(Br)CC2 (stereo not given),CC50,[10],26.4 µM (active)
same,CC50,[18],> 40 µM (active)
NCCS [CYSTEAMINE],AC50,[1],inconclusive
